In the Deep4Chem optical property database:

Assay: photoluminescence quantum yield (fraction); solvent given as SMILES
[1] = in c1cc(-c2cccc(-n3c4ccccc4c4ccccc43)c2)cc(-n2c3ccccc3c3ccccc32)c1
[2] = in O=P(c1ccccc1)(c1ccccc1)c1ccccc1Oc1ccccc1P(=O)(c1ccccc1)c1ccccc1

## CC(C)(C)c1ccc2c(c1)c1cc(C(C)(C)C)ccc1n2-c1cc(C(=O)c2ccccn2)cc(-n2c3ccc(C(C)(C)C)cc3c3cc(C(C)(C)C)ccc32)c1
In Cc1ccccc1
  photoluminescence quantum yield: 0.072
[1]
  photoluminescence quantum yield: 0.96

## COc1ccc(C#Cc2c3ccccc3c(C#Cc3ccc(OC)cc3)c3cc4sc(C)cc4cc23)cc1
In ClCCl
  photoluminescence quantum yield: 0.75

## CCCC1=Cc2nc1ccc1[nH]c(cc1CCC)c1nc(c(NC(=O)CCCC(=O)OC)cc3[nH]c2cc3CCC)C(CCC)=C1
In Cc1ccccc1
  photoluminescence quantum yield: 0.2

## CC[C@H](C)COc1ccc(C2=C3C(C)=C(I)C(C)=[N+]3[B-](F)(F)n3c(C)c(I)c(C)c32)cc1
In ClCCl
  photoluminescence quantum yield: 0.06

## c1ccc(-c2nc(-c3ccccc3)nc(-c3ccc(-c4ccc5c(c4)C4(c6ccccc6-c6ccccc64)c4cc(-c6ccc(-c7nc(-c8ccccc8)nc(-c8ccccc8)n7)cc6)ccc4N5c4ccccc4)cc3)n2)cc1
[1]
  photoluminescence quantum yield: 0.94

## C(=C\c1cc(-c2ccc3ccccc3c2)c(/C=C/c2ccc(N(c3ccccc3)c3ccccc3)cc2)cc1-c1ccc2ccccc2c1)/c1ccc(N(c2ccccc2)c2ccccc2)cc1
In ClCCl
  photoluminescence quantum yield: 0.59

## Cc1cc(C)c(B2c3cc(C(C)(C)C)cc4ccc5ccc6cc(C(C)(C)C)cc2c6c5c34)c(C)c1
In C1CCCCC1
  photoluminescence quantum yield: 0.79

## c1ccc2nc3cccc(-c4ccc(-n5c6ccccc6c6ccccc65)cc4)c3cc2c1
In CC#N
  photoluminescence quantum yield: 0.325
In CCCCCC
  photoluminescence quantum yield: 0.0319
In CCOCC
  photoluminescence quantum yield: 0.102
In ClCCl
  photoluminescence quantum yield: 0.253

## COc1cc2c(cc1-c1ccncc1)Cc1c3c(c4c(c1-2)-c1cc(OC)c(-c2ccncc2)cc1C4)C(=O)N(CCC(C)C)C3=O
In C1CCOC1
  photoluminescence quantum yield: 0.42

## Cc1ccc(N(c2ccc(C)cc2)c2ccc3c4cccc5c(N(c6ccc(C)cc6)c6ccc(C)cc6)ccc(c6cccc2c63)c54)cc1
In ClCCl
  photoluminescence quantum yield: 0.61

## COc1cc2cc(OC)c(-c3ccc([N+](=O)[O-])cc3)cc2cc1-c1ccc([N+](=O)[O-])cc1
In ClC(Cl)Cl
  photoluminescence quantum yield: 0.01
In ClCCl
  photoluminescence quantum yield: 0.009

## COC(=O)c1ccccc1-c1c2ccc(=[NH2+])cc-2oc2cc(N)ccc12
In CC#N
  photoluminescence quantum yield: 1
In CCO
  photoluminescence quantum yield: 0.88
In CN(C)C=O
  photoluminescence quantum yield: 0.74
In O
  photoluminescence quantum yield: 0.89

## COc1ccc2cc(/C=C/C3=C4CCc5ccccc5C4=[O+][B-](F)(F)O3)ccc2c1
In ClCCl
  photoluminescence quantum yield: 0.33

## COc1ccc2c3cccc4c(OC)ccc(c5cccc1c52)c43
In C1CCOC1
  photoluminescence quantum yield: 0.88
In Cc1ccccc1
  photoluminescence quantum yield: 0.76
In ClC(Cl)(Cl)Cl
  photoluminescence quantum yield: 0.05
In ClC(Cl)Cl
  photoluminescence quantum yield: 0.82
In ClCCl
  photoluminescence quantum yield: 0.94
In c1ccncc1
  photoluminescence quantum yield: 0.9

## CCN(CC)c1ccc2c(C)cc(=O)oc2c1
In CCCCCCCCO
  photoluminescence quantum yield: 0.68
In CCCCCCO
  photoluminescence quantum yield: 0.66
In CCCCO
  photoluminescence quantum yield: 0.61
In CCCO
  photoluminescence quantum yield: 0.62
In CCO
  photoluminescence quantum yield: 0.41
In CO
  photoluminescence quantum yield: 0.26
In O
  photoluminescence quantum yield: 0.041

## Clc1ccc2cc3cccc[n+]3cc2c1
In O
  photoluminescence quantum yield: 0.2

## COc1ccc(C2=C(c3ccc(OC)cc3)C(C)(C)c3sccc32)cc1
In C1CCCCC1
  photoluminescence quantum yield: 0.02

## CC1(C)c2ccccc2N(c2ccc3c(c2)C(C)(C)c2cc(N4c5ccccc5C(C)(C)c5ccccc54)ccc2S3(=O)=O)c2ccccc21
[2]
  photoluminescence quantum yield: 0.8

## c1ccc(-c2nc(-c3ccc(N4c5ccccc5C(c5ccccc5)(c5ccccc5)c5ccccc54)cc3)cc(-c3ccccn3)n2)cc1
[2]
  photoluminescence quantum yield: 0.83

## Oc1ccc(Br)cc1-c1nc2c(c3c1-c1ccccc1CC3)-c1ccccc1CC2
In ClCCl
  photoluminescence quantum yield: 0.01

## CCOC(=O)c1c2c3c(cccc3c3cc4c(cc13)[Si](C)(C)O[Si]4(C)C)N(C)C2=O
In CC#N
  photoluminescence quantum yield: 0.51

## CC1=CC(=[N+]2CCC2)C=C2C1=Nc1c(C)cc(N3CCC3)cc1[Si]2(C)C
In C1COCCO1
  photoluminescence quantum yield: 0.11
In CCO
  photoluminescence quantum yield: 0.11
In O
  photoluminescence quantum yield: 0.009
In OCCO
  photoluminescence quantum yield: 0.13

## F[B-]1(F)OC(c2ccccc2)=Cc2cc3[n+](c[n+]21)[B-](F)(F)OC(c1ccccc1)=C3
In ClCCl
  photoluminescence quantum yield: 0.55

## CCOC(=O)CN(CC(=O)OCC)c1ccc(-c2cc(-c3cccnc3)nc(-c3cccnc3)c2)cc1
In CC#N
  photoluminescence quantum yield: 0.57
In CCOC(C)=O
  photoluminescence quantum yield: 0.69
In CN(C)C=O
  photoluminescence quantum yield: 0.53
In CS(C)=O
  photoluminescence quantum yield: 0.51
In c1ccccc1
  photoluminescence quantum yield: 0.77

## N#Cc1ccc(Oc2ccc3c4c(cccc24)C(=O)N(CCO)C3=O)cc1
In ClC(Cl)Cl
  photoluminescence quantum yield: 0.55

## c1ccc2cc3c(cc2c1)-c1cccc2c1c-3cc1ccccc12
In CCCCCCC
  photoluminescence quantum yield: 0.73

## CCC12C(=C3C(=C4c5ccc(-c6ccc(C(C)=O)cc6)cc5S(=O)(=O)C41CC)C(F)(F)C(F)(F)C3(F)F)c1ccc(-c3ccc(C(C)=O)cc3)cc1S2(=O)=O (centres undefined)
In C1COCCO1
  photoluminescence quantum yield: 0.87

## CCCCCCc1ccsc1-c1ccc2c(c1)C1=[N+]3C2=Cc2c4ccc(-c5sccc5CCCCCC)cc4c4n2[B-]3(Oc2ccccc21)Oc1ccccc1-4 (centres undefined)
In C1CCOC1
  photoluminescence quantum yield: 0

## CCC(C)(C)c1ccc2c(c1)C(CCOC)(CCOC)c1cc(-c3ccc4c(c3)C(CCOC)(CCOC)c3cc(C(C)(C)CC)ccc3-4)ccc1-2
In C1CCCCC1
  photoluminescence quantum yield: 0.61

## CCOC(=O)c1c2c3c(ccc([N+](=O)[O-])c3c3cc4ccccc4cc13)N(C)C2=O
In CC#N
  photoluminescence quantum yield: 0.41

## N#CC1=C(c2ccc(-c3cccs3)s2)CCC1
In CCO
  photoluminescence quantum yield: 0.04

## CCCCCCN1C(=O)c2cccc3c(-c4ccc(-c5cc(-c6ccc(OC)cc6)n(-c6ccccc6)n5)s4)ccc(c23)C1=O
In ClCCl
  photoluminescence quantum yield: 0.38

## CN(C)c1ccc(-c2cccc3nsnc23)cc1
In ClCCl
  photoluminescence quantum yield: 0.47

## CCN1C(=CC2=C([O-])C(=Cc3sc4ccccc4[n+]3CC)C2=O)Sc2ccccc21
In CC(C)O
  photoluminescence quantum yield: 0.13

## CCCCCCc1ccc(-n2c3c4cccc(OC)c4nc(-c4ccc(OC)cc4)c3c3c2c2c(-c4ccc(OC)cc4)nc4c(OC)cccc4c2n3-c2ccc(CCCCCC)cc2)cc1
In ClC(Cl)Cl
  photoluminescence quantum yield: 0.042

## C=CC(=O)Oc1ccc2cc(C=C)c(=O)oc2c1
In CC#N
  photoluminescence quantum yield: 0.19

## COc1cc(OC)cc(C2=[O+][B-](F)(F)OC(c3cccs3)=C2)c1
In CC#N
  photoluminescence quantum yield: 0.002
In CC(C)=O
  photoluminescence quantum yield: 0.01
In CCCCCC
  photoluminescence quantum yield: 0.16
In Cc1ccccc1
  photoluminescence quantum yield: 0.14
In ClCCl
  photoluminescence quantum yield: 0.04

## CCOC(=O)c1sc(-c2ccc(-c3cc(-c4cccs4)c(C(=O)OCC)s3)s2)cc1-c1cccs1
In ClCCl
  photoluminescence quantum yield: 0.18

## Nc1nc(/C=C/c2ccc(N(c3ccccc3)c3ccccc3)cc2)cc(/C=C/c2ccc(N(c3ccccc3)c3ccccc3)cc2)n1
In Cc1ccccc1
  photoluminescence quantum yield: 0.88
In ClC(Cl)Cl
  photoluminescence quantum yield: 0.73

## O=Cc1ccc(C#CC(C#Cc2ccc(C=O)o2)=Cc2ccc(C=C(C#Cc3ccc(C=O)o3)C#Cc3ccc(C=O)o3)s2)o1
In ClC(Cl)Cl
  photoluminescence quantum yield: 0.01

## COC(=O)c1cc(=O)n(C)c2cc(-c3ccc(N4CCN(C)CC4)cc3)sc12
In CC#N
  photoluminescence quantum yield: 0.03
In ClCCl
  photoluminescence quantum yield: 0.99

## c1ccc(-c2cc(-c3ccccc3)cc(-c3ccc4c(c3)C3(c5ccccc5-4)c4ccccc4-c4c3c3c5ccccc5c(-c5cc(-c6ccccc6)cc(-c6ccccc6)c5)cc3c3ccccc43)c2)cc1 (centres undefined)
In Cc1ccccc1
  photoluminescence quantum yield: 0.87

## Cc1nc2cccc(-c3nc4ccc(Cl)cc4o3)c2c(=O)[nH]1
In CN(C)C=O
  photoluminescence quantum yield: 0.275

## FC(F)(F)c1ccc(-n2c(-c3ccc(N(c4ccc(-c5ccc(N(c6ccc(-c7nc8c9ccccc9c9ccccc9c8n7-c7ccc(C(F)(F)F)cc7)cc6)c6ccc(-c7nc8c9ccccc9c9ccccc9c8n7-c7ccc(C(F)(F)F)cc7)cc6)cc5)cc4)c4ccc(-c5nc6c7ccccc7c7ccccc7c6n5-c5ccc(C(F)(F)F)cc5)cc4)cc3)nc3c4ccccc4c4ccccc4c32)cc1
In ClCCl
  photoluminescence quantum yield: 0.383

## COC(=O)CNC(=O)CCNc1cccc2ccccc12
In CCO
  photoluminescence quantum yield: 0.55

## Cn1cccc1-c1ccc(C#N)cc1
In C1CCOC1
  photoluminescence quantum yield: 0.94
In CC#N
  photoluminescence quantum yield: 0.51
In CCCCCC
  photoluminescence quantum yield: 0.92
In CCCCOCCCC
  photoluminescence quantum yield: 1
In CCOCC
  photoluminescence quantum yield: 0.98

## COc1ccc2c(c1)CCc1c(-c3ccccc3)c3n(c1-2)[B-](F)(F)[N+]1=C2C(=C(c4ccccc4)C1=N3)CCc1ccccc12
In ClC(Cl)Cl
  photoluminescence quantum yield: 0.32

## CC1(C)CCc2c(c3ccccc3c3nc4c5c(c6ccccc6c4nc23)OC(C)(C)CC5)O1
In C1CCCCC1
  photoluminescence quantum yield: 0.38
In C1CCOC1
  photoluminescence quantum yield: 0.34
In C1COCCO1
  photoluminescence quantum yield: 0.26
In CC#N
  photoluminescence quantum yield: 0.61
In CC(C)O
  photoluminescence quantum yield: 0.53
In CCCCCC
  photoluminescence quantum yield: 0.31
In CN(C)C=O
  photoluminescence quantum yield: 0.57
In CO
  photoluminescence quantum yield: 0.62
In ClC(Cl)Cl
  photoluminescence quantum yield: 0.43
In c1ccccc1
  photoluminescence quantum yield: 0.42

## F[B-]1(F)n2c(-c3ccccc3)cc(-c3ccccc3)c2C(c2ccccc2)=C2C(c3ccccc3)=CC(c3ccccc3)=[N+]21
In C1CCOC1
  photoluminescence quantum yield: 0.31

## CCOc1ccc2c(-c3nc(-c4ccccc4F)no3)cc(=O)oc2c1
In CCO
  photoluminescence quantum yield: 0.64
In ClC(Cl)Cl
  photoluminescence quantum yield: 0.36

## Cc1cc(=O)cc(-c2ccc(-c3nc4ccccn4c3NC3CCCCC3)cc2)o1
In ClCCl
  photoluminescence quantum yield: 0.019

## CC(C)[Si](C#Cc1c2cc3ccccc3cc2c(C#C[Si](C(C)C)(C(C)C)C(C)C)c2cc3ccccc3cc12)(C(C)C)C(C)C
In ClCCl
  photoluminescence quantum yield: 0.15

## CCCCC(CC)Cn1c2cc(C#N)ccc2c2cc(-c3ccc(N(c4ccccc4)c4ccccc4)cc3)c(C#N)cc21 (centres undefined)
In ClCCl
  photoluminescence quantum yield: 0.31

## COc1cc2c(cc1OC)C1=C[C@H](c3ccc(Cl)cc3)C3(C(C#N)=C(C#N)N1CC2)c1cc(Cl)ccc1-c1ccc(Cl)cc13
In ClCCl
  photoluminescence quantum yield: 0.00065

## c1ccc2c(c1)[nH]c1cccnc12
In C1CCCCC1
  photoluminescence quantum yield: 0.145
In C1CCOC1
  photoluminescence quantum yield: 0.081
In C1COCCO1
  photoluminescence quantum yield: 0.122
In CCO
  photoluminescence quantum yield: 0.129
In CN(C)C=O
  photoluminescence quantum yield: 0.079
In Cc1ccccc1
  photoluminescence quantum yield: 0.099
In ClC(Cl)Cl
  photoluminescence quantum yield: 0.124
In Clc1ccccc1
  photoluminescence quantum yield: 0.119

## CC(C)(C)c1ccc(N(c2ccccc2)c2ccc3ccc4c(N(c5ccccc5)c5ccc(C(C)(C)C)cc5)ccc5ccc2c3c54)cc1
In ClCCl
  photoluminescence quantum yield: 0.71
